Reference: patent publication US7910622B2, “Modulation of bacterial quorum sensing with synthetic ligands” (Wisconsin Alumni Research Foundation, priority 2007, dated 2011)
Read-outs that look alike come from different tables or passages of the source.

Assays:
[1] = target: QscR:DNA binding (PA1897 promoter) (Pseudomonas aeruginosa, UniProt G3XD77)
Description: We sought to obtain further insights into the mechanism of QscR modulation by non-native AHLs. […] We therefore performed electromobility shift assays (EMSA) on purified QscR and radiolabeled PA1897 promoter in the presence of selected QscR antagonists and 1.

QscR = target: T1, QscR (Pseudomonas aeruginosa, UniProt G3XD77); experiment: QscR competitive antagonism reporter gene assay (β-gal) against DDHL in recombinant E. coli (pJN105Q); assay type: cell-based
T1 construct: expressed in transfected cells; host or cells: recombinant E. coli (pJN105Q) with β-gal promoter fusion
T1 sequence (G3XD77 entry or part of it): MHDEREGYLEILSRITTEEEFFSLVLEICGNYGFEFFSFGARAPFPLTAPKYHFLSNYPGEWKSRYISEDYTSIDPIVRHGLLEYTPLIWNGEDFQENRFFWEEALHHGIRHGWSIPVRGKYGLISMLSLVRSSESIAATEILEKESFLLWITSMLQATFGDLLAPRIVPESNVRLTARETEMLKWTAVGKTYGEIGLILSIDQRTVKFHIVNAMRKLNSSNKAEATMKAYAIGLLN
Procedure: The bacterial reporter strains used in this study were: E. coli pJN105L (P. aeruginosa, LasR), P. aeruginosa MW1 yfp (LasR), E. coli pJN105Q (P. aeruginosa, QscR), A. tumefaciens WCF (TraR), and V. fischeri ES114-luxI (LuxR).
We screened our AHL libraries for agonistic and antagonistic activity against QscR using a previously reported, recombinant E. coli strain that reports QscR activity via the production of β-galactosidase (β-gal) from a promoter fusion. […] All AHLs were examined at 5 μM concentrations.

[2] = system: wild-type V. fischeri ES114; experiment: Luminescence dose response in wild-type V. fischeri ES114; assay type: cell-based, Vibrio fischeri; conditions: relative to OHHL
Procedure: Vibrio fischeri assay procedures. For primary agonism assays, an appropriate amount of concentrated control or PHL (11) stock solution, to give a final concentration of 200 μM, was added to wells in a 96-well multititer plate. An overnight culture of V. fischeri ES114 (WT, Δ-luxI or Δ-luxR) was diluted 1:10 with LBS medium. A-200 μL portion of the diluted culture was added to each well of the plate. Plates were grown at RT with shaking (200 rpm) until the OD600=0.35-0.4 (4-6 h). Luminescence then was measured and normalized to cell density per well. […] Similar methods were used for dose response assays, except the concentrations of controls and PHLs 11 used were between 0.02 and 2×10^5 nM. All assays were performed in triplicate. IC50 and EC50 values were calculated using GraphPad Prism software using a sigmoidal curve fit.

QscR:DNA binding (PA1897 promoter), sequence (G3XD77 entry or part of it): as above

Compound | inhibition of OdDHL-dependent QscR:DNA binding ([1]; 100:1 ratio with OdDHL) [%] | reduction of QscR:DNA binding ([1]; 1000:1 ratio vs. OdDHL) [%] | inhibition of OdDHL-dependent QscR:DNA binding ([1]; EMSA) | IC50 (QscR) [nM] | activity in wild-type V. fischeri [2]
O=C(Cc1ccc(-c2ccccc2)cc1)N[C@H]1CCOC1=O [C18, 4-phenyl PHL] | 85 | 100 | capable of inhibiting OdDHL (1)-dependent QscR:DNA binding | 30 | –
3-nitro PHL [B17] | – | – | – | – | super-agonistic activity
